Assay results: publication PMC10082216 (Nature Communications, 2023)

System: female gametocytes
Assay: 384-well microsphiltration readout 2 (anti-pfs25): retention of female gametocytes
Format: cell-based
Conditions: Plasmodium falciparum, read-out: IC50 during the screening campaign, only females stained
Method: Large scale microsphiltration was performed as previously described. Briefly, microsphiltration plates were prepared using a Biomek NX workstation (Beckman, cat. no. 989402) to load 15 μl of 25–45μm microspheres then 10 μl of a mixture of 30% 5–15μm and 70% (w/w) 15–25μm microspheres. The 384-well filter plates were then stored at -20 °C until use. In some of the 384-well microsphiltration plates leakage of microspheres occurred in one or more wells. The wells with leakages were sealed. Plates displaying more than 5 sealed wells were not used. Imaging plates were prepared by loading 30 μL of staining solution in each well of a collagen-coated plate. A different staining solution was used for each readout (1 and 2). Readout 1 counted both male and female gametocytes, using nucleic acid (Syto40, Thermo Fisher cat. no. S11351) and viability (MitoTracker Deep Red, Thermo Fisher cat. no. M22426) staining, and total RBCs using a cell membrane stain (CellMask Orange, Thermo Fisher cat. no. C10045). Readout 2 selectively quantified the retention and killing of female gametocytes. […] Imaging plates were incubated overnight at room temperature, then read in an OperaPhenix high-content confocal imaging system (Perkin Elmer, Waltham, MA, USA) and analyzed with Harmony high-content analysis software v. […]

CNC(=O)N1C[C@@H](C)N(c2ccc(C(=O)Nc3ccc(-c4ccc(-c5c[nH]c([C@@H]6CCCN6C(=O)[C@@H](NC(=O)OC)C(C)C)n5)cc4)c(OC(F)(F)F)c3)cn2)C[C@@H]1C [TD-6450]
IC50: 2030 ± 350 nM
